Measurements taken from article PMC12257540, “From Inhibitors to PET: SAR-Based Development of [^18F]SK60 for mIDH1 Imaging” (Journal of Medicinal Chemistry, 2025).
Several values for one entry are separate records, joined by “and”; a condition that tells them apart may be missing. Equal entries are not always repeated.

Tests used:
[1] = In vivo metabolism in naïve mice (radio-RP-HPLC and radio-MLC of plasma and brain); set-up: species or system CD-1 mice; details: 30 min p.i., i.v.; for parent radioligand fraction in brain: mouse brain; for parent radioligand fraction in plasma: mouse plasma
Experimental: The metabolic stability of [ ^ 18 F]-SK60 was investigated ex vivo by radio-RP-HPLC and radio-micellar-HPLC (MLC) analyses of plasma and brain samples obtained from naïve female mice (n = 3) at 30 min post intravenous injection (p.i.). For the preparation of the RP-HPLC samples, two solvent systems MeCN/water (9/1; v/v) and MeOH/water (9/1; v/v) were tested for activity extraction from the plasma and brain samples. With both systems, recoveries of higher than 95% could be obtained. […] For the radio-MLC analyses, the brain and plasma samples were treated with sodium dodecyl sulfate and directly injected into the MLC system. Despite the slightly different elution profile compared to the RP-HPLC system caused by different separation mechanisms, the quantification of the peaks gave similar results (Figure B). Altogether, the results obtained with these two complementary systems indicate a high metabolic stability of [ ^ 18 F]-SK60 in mice without the formation of brain-penetrable radiometabolites.
[ ^ 18 F]-SK60 (24.3 ± 2.89 MBq) diluted in 200 μL of sterile isotonic saline was injected into the tail vein of restrained, awake mice. Thirty min after injection, animals were anesthetized with isoflurane, blood was collected from the retro-orbital plexus with a heparinized glass Pasteur pipet, and the anesthetized animal was sacrificed by cervical dislocation. Blood plasma was obtained by centrifugation of the whole blood (8000 rpm, 4 °C, 2 min). The brain was isolated, rapidly rinsed with 1 mL isotonic saline to remove superficial blood, and finally homogenized in 1 mL deionized water in an ice–water bath (Potter B. Braun, 1000 rpm, 10 strokes).
Protein precipitation and extraction were performed by using an ice-cold MeCN/water (9:1 v/v) or MeOH/water (9:1 v/v) mixture at a 4:1 (v/v) solvent-to-sample ratio for plasma or brain homogenates. Samples were vortexed for 3 min, equilibrated on ice for 5 min, and centrifuged at 10,000 rpm for 5 min. […] Combined supernatants were concentrated under nitrogen at 75 °C to ∼100 μL and analyzed via radio-HPLC using a Reprosil-Pur 120 C18-AQ column with a gradient MeCN/20 mM NH4OAcaq (pH 6.8) elution (gradient: eluent A 10% MeCN/20 mM NH4OAcaq.; eluent B 90% MeCN/20 mM NH4OAcaq.; 0–5 min 100% A, 5–17 min up to 100% B, 17–26 min 100% B, 26–27 min up to 100% A, 27–30 min 100% A). […]
For the preparation of the MLC samples, mouse plasma (20–50 μL, 2–3 kBq) was dissolved in 200 μL of 200 mM aqueous sodium dodecyl sulfate (SDS) and injected into the MLC system. […] The MLC system consisted of a JASCO PU-980 pump, an AS-2055Plus autoinjector with a 2 mL sample loop, and a UV-1575 detector coupled with a γ radioactivity HPLC detector (Gabi Star, raytest Isotopenmessgeräte GmbH; Straubenhardt; Germany). […]

[2] = PET-based biodistribution in naïve mice
Experimental: (§1) For the time of the experiments, female CD-1 mice (n = 4; 8–10 weeks; 37–40 g) were kept in a dedicated climatic chamber with free access to water and food under a 12:12 h dark: light cycle at a constant temperature (24 °C). The animals were anesthetized (Anaesthesia Unit U-410, agntho’s, Lidingö, Sweden) with isoflurane (2.0%, 300 mL/min) delivered in a 20% oxygen/80% air mixture (Gas Blender 100 Series, MCQ instruments, Rome, Italy) and their body temperature maintained at 37 °C with a thermal bed system. […] Each PET image was corrected for random coincidences, dead time, scatter, and attenuation (AC) based on a whole body (WB) MR scan. The reconstruction parameters for the list mode data were 3D-ordered subset expectation maximization (OSEM), 4 iterations, 6 subsets, energy window: 400–600 keV, coincidence mode: 1–5, ring difference: 81. The PET data were collected by a continuous WB scan during the entire investigation. […] The brain region was identified using the mouse brain atlas template Ma-Benveniste-Mirrione-FDG. The activity data are expressed as the SUVmean of the overall ROI.

[3] = test system: IDH1R132H–U251 cells; assay: In vitro cell uptake of [18F]SK60 in IDH1R132H-U251 cells; assay type: cell-based, Human; details: 240 min incubation
Experimental: Human U251 glioblastoma cells, stably transfected and overexpressing either wild-type IDH1 (IDH1-U251) or IDH1R132H (IDH1R132H–U251), were obtained from Jaqueline Kessler and Dirk Vordermark (Department of Radiotherapy, Martin Luther University Halle-Wittenberg, Halle/Saale, Germany). Cells were grown in RPMI 1640 medium (10% FCS), supplemented with puromycin, to ensure the cultivation of transfected cells only.
The IDH1-U251 and IDH1R132H–U251 cells were seeded at 4,00,000 cells/mL in a 24-well cell culture plate 1 day before the experiment. The medium was replaced by 400 μL/well, and 4 μL of a 100-x stock solution of the respective inhibitor in 10% DMSO or vehicle (10% DMSO) was added about 2 h before the experiment. The experiment was started with the addition of 100 μL of [ ^ 18 F]-SK60 (0.477 ± 0.002 MBq/mL; 4.86 ± 0.33 nM) diluted in cell culture medium per well, and the well plates were incubated in a humidified-air atmosphere incubator containing 5% CO2 at 37 °C for various times. The incubation was stopped by aspiration of the supernatant and washing the cell layers twice with prechilled PBS (500 μL/well). […] The concentrations of surface-bound and internalized activities per well were calculated as a percentage of the applied dose per well and normalized to the protein concentration per well (% AD/μg protein). […]

[4] = target: P-gp efflux transporter (Mus musculus, UniProt P21447); assay: Efflux transporter P-gp substrate study (PET, cyclosporine A pretreatment); details: cyclosporine A 50 mg/kg i.v. 30 min before radioligand
Sequence of P-gp efflux transporter (P21447 whole entry): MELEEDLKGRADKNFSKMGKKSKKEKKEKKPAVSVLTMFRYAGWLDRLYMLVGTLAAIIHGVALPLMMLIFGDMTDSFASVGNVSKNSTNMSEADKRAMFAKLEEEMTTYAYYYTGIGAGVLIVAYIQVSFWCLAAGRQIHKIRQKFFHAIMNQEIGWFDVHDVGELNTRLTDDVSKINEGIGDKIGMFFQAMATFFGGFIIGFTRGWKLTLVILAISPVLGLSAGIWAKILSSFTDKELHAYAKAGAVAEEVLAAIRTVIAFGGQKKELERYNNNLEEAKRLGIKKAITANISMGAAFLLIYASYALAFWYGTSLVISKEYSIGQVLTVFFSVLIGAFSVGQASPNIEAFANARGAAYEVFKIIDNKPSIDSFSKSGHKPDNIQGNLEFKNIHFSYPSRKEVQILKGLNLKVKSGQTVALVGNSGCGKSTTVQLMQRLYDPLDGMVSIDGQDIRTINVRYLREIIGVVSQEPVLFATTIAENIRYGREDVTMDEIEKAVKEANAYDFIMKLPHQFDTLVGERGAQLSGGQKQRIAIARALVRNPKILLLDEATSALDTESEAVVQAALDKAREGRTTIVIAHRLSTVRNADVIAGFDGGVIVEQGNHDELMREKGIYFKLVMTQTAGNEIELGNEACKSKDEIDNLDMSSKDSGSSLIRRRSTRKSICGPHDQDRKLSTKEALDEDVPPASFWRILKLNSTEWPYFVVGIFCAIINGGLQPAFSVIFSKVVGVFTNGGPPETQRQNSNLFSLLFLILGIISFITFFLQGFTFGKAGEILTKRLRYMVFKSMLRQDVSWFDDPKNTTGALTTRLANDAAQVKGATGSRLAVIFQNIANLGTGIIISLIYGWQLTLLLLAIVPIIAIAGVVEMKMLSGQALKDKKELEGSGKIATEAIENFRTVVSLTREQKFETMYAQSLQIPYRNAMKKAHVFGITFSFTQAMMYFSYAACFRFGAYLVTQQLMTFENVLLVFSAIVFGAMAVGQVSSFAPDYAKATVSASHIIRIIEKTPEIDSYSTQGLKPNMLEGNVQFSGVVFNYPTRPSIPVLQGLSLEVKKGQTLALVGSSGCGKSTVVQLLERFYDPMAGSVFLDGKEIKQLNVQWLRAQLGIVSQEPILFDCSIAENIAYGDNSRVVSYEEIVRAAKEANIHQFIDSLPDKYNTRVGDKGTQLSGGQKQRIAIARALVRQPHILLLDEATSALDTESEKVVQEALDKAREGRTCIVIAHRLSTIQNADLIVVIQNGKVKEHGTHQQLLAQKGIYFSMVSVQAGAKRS
Experimental: To investigate the role of P-gp, mice were treated with cyclosporine A, an inhibitor of the P-gp efflux transporter.
as §1

In the case of `Cc1cccc(NC(=O)c2nn(Cc3ccc([18F])cc3)c3c2CN(C(=O)c2ccc[nH]2)CC3(C)C)c1` [[18F]SK60], the “parent radioligand fraction in brain” value ([1]; MLC) is reported as 100%, the “parent radioligand fraction in plasma” value ([1]; MLC) is reported as 79% and the “parent radioligand fraction in brain” value ([1]; RP-HPLC) is reported as 100%. For the same compound, the “parent radioligand fraction in plasma” value ([1]; RP-HPLC) was 80 ± 2% and 80%, the accumulation in gallbladder ([2]; PET, gallbladder, 30 min, n = 2) was 60 SUVmean and the accumulation in liver ([2]; PET, liver, 30 min, n = 2) was 1.6 SUVmean. The brain uptake ([2]; brain, 15 min p.i.) was roughly 0.3 SUVmean, the internalized radioligand [3] was 0.089 ± 0.02 % AD/μg protein and the “increase of brain uptake after cyclosporine A compared to vehicle” value [4] was “approximately 2.5 fold”.
